# Data reported in ChEMBL document CHEMBL1201862, “PubChem BioAssay data set” (2004).
# Calls of active or inactive are those of the source.
# How the values were obtained:
# [1] = molecular target: T1, Heat shock factor protein 1 (Mus musculus, UniProt P38532); assay: decrease of HSF1-responsive luciferase luminescence – cell-based, NIH3T3, dose retest, confirmation (AID 2382); format: functional;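 further: NIH3T3 fibroblasts with HSF1-driven luciferase reporter stressed by proteasome inhibitor MG132; luminescence from HSF1-driven luciferase expression after 8 hours of MG132 stress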
# T1 sequence (P38532 whole entry): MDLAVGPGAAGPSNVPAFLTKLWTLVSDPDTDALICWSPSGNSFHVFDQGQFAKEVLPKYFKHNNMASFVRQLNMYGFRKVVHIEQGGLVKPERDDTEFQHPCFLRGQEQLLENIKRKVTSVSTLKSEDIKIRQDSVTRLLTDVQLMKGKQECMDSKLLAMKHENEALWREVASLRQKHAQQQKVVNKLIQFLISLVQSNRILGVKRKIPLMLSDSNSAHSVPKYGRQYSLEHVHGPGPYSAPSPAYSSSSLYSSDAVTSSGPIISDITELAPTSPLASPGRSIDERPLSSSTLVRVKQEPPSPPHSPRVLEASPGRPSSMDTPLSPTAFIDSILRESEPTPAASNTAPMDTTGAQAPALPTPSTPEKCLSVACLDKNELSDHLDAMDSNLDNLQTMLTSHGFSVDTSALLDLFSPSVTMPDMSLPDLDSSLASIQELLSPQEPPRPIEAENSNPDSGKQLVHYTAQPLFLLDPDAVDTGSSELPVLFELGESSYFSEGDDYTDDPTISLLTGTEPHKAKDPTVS
# [2] = alpha-synuclein stem-loop luciferase translation blockers – H4 neuroglioma cells, luminescence, confirmation (AID 1988); format: functional, cell-based
# [3] = luciferase reporter signal suppression in cells – H4 neuroglioma cells, luminescence, dose response (AID 1990); format: functional, cell-based
# [4] = Luminescence Cell-Based Dose Response HTS to Identify Inhibitors of 5'UTR Stem-Loop Driven Prion Protein mRNA Translation in H4 Neuroglioblastoma Cells. [Related pubchem assays: 1827 (Project Summary), 1813 (Primary HTS)]; format: functional
# [5] = Luminescence Cell-Based Dose Retest to Confirm Inhibitors of Cancer Stem Cells. [Related pubchem assays (depositor defined):AID2717, AID2721]; format: functional; details: Homo sapiens
# Cytochrome P450 2C19 = Cytochrome P450 2C19 (Homo sapiens, UniProt P33261); assay: Cytochrome panel assay with activity outcomes. Panel member name: p450-cyp2c19 Compounds with AC50 equal or less than 10 uM are considered active; format: functional
# Streptococcus = assay: GAS UMAA2166 growth inhibition – luminescence, BacTiterGlo, counter-screen for streptokinase expression inhibitor project, dose response (AID 1915); format: functional, organism-based;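 further: potency for reduction of bacterial viability or growth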
# [6] = test system: Streptococcus sp. 'group A'; assay: Streptococcus pyogenes SK(-)GAS viability under kanamycin – luminescence, BacTiterGlo, confirmation, counter-screen for streptokinase expression inhibitor project, dose response (AID 1900); format: functional, organism-based
# Streptokinase A = molecular target: T2, Streptokinase A (Streptococcus pyogenes serotype M1, UniProt P10520); assay: viability-normalized secreted streptokinase activity reduction – plasminogen activation absorbance, OD405, dose response (AID 1914); format: functional, Streptococcus pyogenes M1 GAS;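 further: secreted streptokinase activity via plasminogen activation per viability signal from cell pellet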
# T2 sequence (P10520 whole entry): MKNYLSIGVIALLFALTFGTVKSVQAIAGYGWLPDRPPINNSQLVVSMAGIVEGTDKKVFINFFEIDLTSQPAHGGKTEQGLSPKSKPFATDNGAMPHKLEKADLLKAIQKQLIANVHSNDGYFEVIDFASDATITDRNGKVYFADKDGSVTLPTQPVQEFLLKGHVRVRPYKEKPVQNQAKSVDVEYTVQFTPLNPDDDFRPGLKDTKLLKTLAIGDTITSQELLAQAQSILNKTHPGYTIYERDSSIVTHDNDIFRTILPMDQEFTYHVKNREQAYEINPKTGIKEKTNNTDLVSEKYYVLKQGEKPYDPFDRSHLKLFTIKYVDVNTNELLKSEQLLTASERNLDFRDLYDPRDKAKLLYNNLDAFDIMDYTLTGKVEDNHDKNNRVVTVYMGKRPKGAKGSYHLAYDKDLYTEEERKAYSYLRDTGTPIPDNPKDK
# Cytochrome P450 3A4 = Cytochrome P450 3A4 (Homo sapiens, UniProt P08684);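 further: CYP3A4 tested as one member of a cytochrome P450 panel screen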
# [7] = Trypanosoma cruzi growth suppression in host cells – NIH3T3 host cells, beta-gal luminescence, confirmation (AID 2044); format: functional, cell-based;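 further: intracellular parasites grown in NIH/3T3 mouse fibroblasts as host cells; luminescent beta-galactosidase reporter signal from transgenic T. cruzi replicating inside host cells; inhibitors lower the luminescence signal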
# [8] = NIH3T3 cell viability loss – ATP luminescence, mouse fibroblasts, counter-screen, dose response (AID 2010); format: functional, cell-based;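 further: cells exposed to compound for about 90 hours before reading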
# Cytochrome P450 2C19, sequence (P33261 whole entry): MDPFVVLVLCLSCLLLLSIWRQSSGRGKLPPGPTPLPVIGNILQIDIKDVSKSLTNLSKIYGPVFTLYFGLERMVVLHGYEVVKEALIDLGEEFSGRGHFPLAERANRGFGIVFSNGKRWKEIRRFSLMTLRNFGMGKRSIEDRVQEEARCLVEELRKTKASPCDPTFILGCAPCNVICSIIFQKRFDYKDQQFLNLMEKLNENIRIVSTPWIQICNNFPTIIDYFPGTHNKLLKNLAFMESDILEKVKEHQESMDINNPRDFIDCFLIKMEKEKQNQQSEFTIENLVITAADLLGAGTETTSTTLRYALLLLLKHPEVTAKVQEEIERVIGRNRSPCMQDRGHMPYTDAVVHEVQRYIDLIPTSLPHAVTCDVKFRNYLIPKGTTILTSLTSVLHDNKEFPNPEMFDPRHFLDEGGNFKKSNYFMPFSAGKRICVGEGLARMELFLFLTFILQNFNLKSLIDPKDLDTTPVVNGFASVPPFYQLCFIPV
# Cytochrome P450 3A4, sequence (P08684 whole entry): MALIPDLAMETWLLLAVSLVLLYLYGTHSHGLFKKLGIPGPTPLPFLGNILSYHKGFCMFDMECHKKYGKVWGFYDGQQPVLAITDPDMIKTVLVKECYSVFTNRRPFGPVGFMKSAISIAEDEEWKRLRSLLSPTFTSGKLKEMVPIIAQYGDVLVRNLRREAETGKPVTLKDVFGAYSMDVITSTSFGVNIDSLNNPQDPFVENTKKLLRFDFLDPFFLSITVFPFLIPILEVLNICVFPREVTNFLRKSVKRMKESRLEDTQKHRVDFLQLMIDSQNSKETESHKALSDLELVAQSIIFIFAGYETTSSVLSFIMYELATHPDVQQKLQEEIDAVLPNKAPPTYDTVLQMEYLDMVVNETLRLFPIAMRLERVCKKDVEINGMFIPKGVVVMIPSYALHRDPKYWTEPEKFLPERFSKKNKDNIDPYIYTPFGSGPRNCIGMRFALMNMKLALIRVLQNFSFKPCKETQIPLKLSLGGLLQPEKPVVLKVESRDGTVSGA
compound,measurement,setting,value
O=C(NCc1ccco1)C1CCN(S(=O)(=O)c2cccc([N+](=O)[O-])c2)CC1,EC50,[1],> 195 µM (not active)
COc1ccc([C@@H]2C[C@@H](c3ccccc3)Oc3c(C)ccc(C(C)C)c32)cc1,EC50,[1],> 195 µM (not active)
CCCCCSc1nc(C)c(CC(=O)O)c(O)n1,EC50,[1],> 195 µM (not active)
CCOc1ccc(-n2c(SCC(=O)Nc3nccs3)nc3c(c2=O)SCC3)cc1,EC50,[2],12.8 µM (active)
same,EC50,[3],11.7 µM (active)
same,EC50,[4],19.1 µM (active)
COc1cc(C(=O)N2CCN(C(=O)CC(C)C)CC2)cc(OC)c1OC,EC50,[1],9.31 µM (active)
COc1ccc(OC)c(NC(=O)C2CCCN(S(=O)(=O)c3c(C)nn(C)c3C)C2)c1 (stereo unspecified),EC50,[1],> 195 µM (not active)
Brc1ccccc1-c1nnc2sc(Cc3ccccc3)nn12,EC50,[2],> 120 µM (not active)
same,EC50,[3],64.7 µM (active)
same,EC50,[4],> 120 µM (not active)
COc1cc(CNc2ccc(CNc3nc[nH]n3)cc2)ccc1OCc1ccccc1,AC50,[5],2.25 µM (active)
C[C@@]12CC[C@H](O)C[C@@H]1CC[C@H]1[C@@H]2C[C@@H](O)[C@]2(C)[C@@H](C3=CC(=O)OC3)CC[C@]12O,AC50,Cytochrome P450 2C19,inconclusive
COC(=O)c1cn(S(=O)(=O)c2ccccc2)c2ccccc12,EC50,[2],> 120 µM (not active)
same,EC50,[3],> 120 µM (not active)
same,EC50,[4],> 120 µM (not active)
Cc1ccc(OCC(=O)Nc2ccccc2C(=O)N2CCCCC2)cc1,EC50,[1],> 195 µM (not active)
Cc1ccc(C(=O)C[n+]2ccc(Cc3ccccc3)cc2)cc1,EC50,[2],10.5 µM (active)
same,EC50,[3],14.3 µM (active)
same,EC50,[4],13.7 µM (active)
CC(C)(CNC(=O)c1ccccc1)CNC1=NS(=O)(=O)c2ccccc21,EC50,Streptococcus,> 150 µM (not active)
same,EC50,[6],> 150 µM (not active)
same,EC50,Streptokinase A,> 150 µM (not active)
CC1CCCN(CC(O)COCC2COc3ccccc3O2)C1 (stereo unspecified),AC50,Cytochrome P450 2C19; read-out: AC50,5.01 µM (inconclusive)
NC(CC(=O)Nc1cc(C(F)(F)F)ccc1Cl)=NO,AC50,Cytochrome P450 3A4,3.98 µM (inconclusive)
same,AC50,Cytochrome P450 2C19,inconclusive
Cc1ccc(C(NC(=O)NC(C)c2ccccc2)C(Cl)(Cl)Cl)cc1F (stereo unspecified),EC50,[2],> 120 µM (not active)
same,EC50,[3],12 µM (active)
same,EC50,Streptococcus,99.7 µM (active)
same,EC50,[6],3.25 µM (active)
same,EC50,[4],18.7 µM (active)
same,EC50,Streptokinase A,7.32 µM (active)
COc1ccc(COC(=O)N/N=C2/C[C@@H](O)[C@@H](O)[C@@H]3[C@H]4C(=O)N(c5ccc(F)cc5F)C(=O)[C@@H]4CC[C@H]23)cc1,AC50,Cytochrome P450 3A4,6.31 µM (inconclusive)
Cc1cc(C)cc(N2C(=O)CN(Cc3ccccc3)C2=S)c1,EC50,[1],> 195 µM (not active)
CCCOc1ccc(Cn2c(=O)oc3ccc(C)cc32)cc1OC,EC50,[1],> 195 µM (not active)
Cc1ccc(-n2nc3c(N4CCC(C(=O)NCCc5cccs5)CC4)nnc(C)c3c2C)cc1,EC50,[3],19.2 µM (active)
same,EC50,[4],> 120 µM (not active)
COc1ccc(-c2csc(N(CCc3ccc(OC)c(OC)c3)C(=O)COc3ccccc3)n2)cc1,EC50,[1],> 195 µM (not active)
CCOC(=O)c1[nH]c(C)c(C(=O)C2=C(O)C(=O)N(CCN3CCOCC3)C2c2cccs2)c1C (stereo unspecified),AC50,Cytochrome P450 3A4,14.1 µM (inconclusive)
O=C(O)c1ccc(Cl)c(S(=O)(=O)N(Cc2ccccc2)c2ccc(F)cc2)c1,AC50,[5],31.2 µM (active)
CC1C=Cc2ccccc2N1C(=O)c1ccccc1 (stereo unspecified),EC50,[1],> 195 µM (not active)
CC(C)Oc1cccc(C(=O)NC(=S)Nc2ccccc2)c1,EC50,[1],> 195 µM (not active)
O=C(c1cccc(S(=O)(=O)N2CCOCC2)c1)N(Cc1nnc(-c2ccccc2Cl)o1)C1CC1,EC50,[1],> 195 µM (not active)
CCOc1ccc(OCC)c(NC(=O)CSc2nc3ccccc3c(=O)n2C)c1,EC50,[2],69.6 µM (active)
same,EC50,[3],29.5 µM (active)
same,EC50,[4],71.4 µM (active)
CCN=C(S)NC1CC2CCCC(C1)N2Cc1ccco1 (stereo unspecified),AC50,Cytochrome P450 2C19; read-out: AC50,14.1 µM (inconclusive)
CCOC(=O)C1(Cc2ccccc2)CCCN(CCCn2cccn2)C1 (stereo unspecified),EC50,[1],> 195 µM (not active)
CCCc1nc2ccccc2c(C(=O)OCC(=O)Nc2ccc(S(=O)(=O)N3CCOCC3)cc2)c1CC,AC50,[5],4.04 µM (active)
same,EC50,Streptococcus,52.8 µM (active)
same,EC50,[6],18.1 µM (active)
same,EC50,Streptokinase A,26 µM (active)
COc1ccc(/C=C/C(=O)c2ccccc2)cc1Cn1nnc2ccccc21,AC50,[5],4.11 µM (active)
CC(=O)c1cccc(NC(=O)C2CC(=O)N(CCc3ccccc3)C2)c1 (stereo unspecified),EC50,[1],> 195 µM (not active)
Cc1cc(Nc2nc(Cl)c(Cl)cc2Cl)n(-c2ccccc2)n1,AC50,[5],3.95 µM (active)
COc1ccc(CNC(=O)CCCNC(=O)c2ccc(Cl)cc2)cc1OC,EC50,[1],> 195 µM (not active)
COc1ccc(OC)c(N(CC(=O)Nc2ccccc2)S(C)(=O)=O)c1,EC50,[1],> 195 µM (not active)
CC(C)c1ccccc1OCC(O)CN(CC(O)COc1cccc2ccccc12)C(C)C (stereo unspecified),EC50,[7],3.45 µM (active)
same,AC50,[5],2.82 µM (active)
same,EC50,Streptococcus,7.04 µM (active)
same,EC50,[6],4.05 µM (active)
same,EC50,[8],> 30 µM (not active)
Cn1c(CCC(=O)Nc2ccc(N3CCOCC3)cc2)nc(=O)c2ccccc21,AC50,Cytochrome P450 2C19; read-out: AC50,35.5 µM (inconclusive)
Cc1ccc(S(=O)(=O)N(C)c2ccc(OCc3cccc(C)c3)cc2)cc1,AC50,[5],0.898 µM (active)
CC(C)NC(=O)C(C)n1cccc1C(=O)c1ccccc1 (stereo unspecified),AC50,Cytochrome P450 3A4,15.8 µM (inconclusive)
COc1ccc(C2C(C(=O)c3ccc(Cl)cc3)=C(O)C(=O)N2CCN2CCOCC2)c(OC)c1 (stereo unspecified),AC50,Cytochrome P450 3A4,20 µM (inconclusive)
same,AC50,Cytochrome P450 2C19; read-out: AC50,39.8 µM (inconclusive)
NC(=O)N/N=C/c1ccc2cccc(OCc3ccccc3)c2n1,EC50,[2],61 µM (active)
same,EC50,[3],17.8 µM (active)
same,EC50,[4],> 120 µM (not active)
C/C(=N\NC(=O)CN1CCN(Cc2ccccc2)CC1)c1cccs1,EC50,[1],> 195 µM (not active)
Fc1ccc(CO/N=C/C2=C(Cl)c3ccccc3CC2)cc1,EC50,Streptococcus,> 150 µM (not active)
same,EC50,[6],6.39 µM (active)
same,EC50,Streptokinase A,13.5 µM (active)
same,EC50,[1],> 195 µM (not active)
COc1cccc(/C=N/NC(=O)CCCC(=O)NC2CCCCC2)c1,EC50,[2],15.6 µM (active)
same,EC50,[3],> 120 µM (not active)
same,EC50,[4],> 120 µM (not active)
CCO/C(O)=C(/C=N/c1ccccc1)[N+](=O)[O-],AC50,Cytochrome P450 2C19; read-out: AC50,14.1 µM (inconclusive)
COc1cc(OC)c2cc(-c3ccncc3)cnc2c1,AC50,Cytochrome P450 3A4,0.316 µM (inconclusive)
same,AC50,Cytochrome P450 2C19; read-out: AC50,31.6 µM (inconclusive)
